Entries after “also recorded” stand apart in the source; their conditions may differ. Where two headings read alike, the source gives them in different places.

In series [1] the target is T1, PAT1 (Homo sapiens, UniProt Q7Z2H8). Particulars: donor pH 6.0, 100 μmol/L taurine, 20 mg/mL test substance.
Series [2] has as its target T2, TauT (Homo sapiens, UniProt P31641).
T2 sequence (P31641 1-620): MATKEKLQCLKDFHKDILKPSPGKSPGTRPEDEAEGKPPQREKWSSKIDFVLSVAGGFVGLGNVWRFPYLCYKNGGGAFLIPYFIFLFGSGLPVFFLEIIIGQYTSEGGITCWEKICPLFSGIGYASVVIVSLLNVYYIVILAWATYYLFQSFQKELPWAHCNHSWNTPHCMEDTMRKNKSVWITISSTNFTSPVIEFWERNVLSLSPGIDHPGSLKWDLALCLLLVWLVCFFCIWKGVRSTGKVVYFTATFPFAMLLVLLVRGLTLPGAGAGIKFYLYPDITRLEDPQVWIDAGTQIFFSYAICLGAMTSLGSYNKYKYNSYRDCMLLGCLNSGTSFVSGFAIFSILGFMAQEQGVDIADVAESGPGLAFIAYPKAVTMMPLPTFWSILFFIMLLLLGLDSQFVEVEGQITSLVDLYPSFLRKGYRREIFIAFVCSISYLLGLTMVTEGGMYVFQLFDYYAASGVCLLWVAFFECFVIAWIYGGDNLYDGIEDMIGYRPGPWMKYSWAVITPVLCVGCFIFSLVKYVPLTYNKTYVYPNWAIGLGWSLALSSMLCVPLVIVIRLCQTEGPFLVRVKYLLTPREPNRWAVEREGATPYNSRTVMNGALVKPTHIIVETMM
The experiment in a line: Taurine (52 nmol/L) uptake in Caco-2 cells at pH 7.4 in the presence of amino acids. Format: cell-based. Also noted: endogenous in cells; host or cells: Caco-2. Particulars: pH 7.4, 0.052 μmol/L taurine. An excerpt: […]. […] […].

The target in series [3] is T2, TauT. The following applies: pH 7.4/7.4, 0.052 μmol/L taurine, 20 mg/mL test substance.
The test system of a further series is PAT1 and TauT. The series is described as follows: Taurine (52 nmol/L) uptake in Caco-2 cells at pH 6.0 in the presence of amino acids. The class given is cell-based, human. Particulars: pH 6.0, 0.052 μmol/L taurine.
Series [4] concerns the target T1, PAT1. The following applies: pH 6.0, 100 μmol/L taurine.
Procedure: (§1) After the 5 min incubation, the isotope‐containing buffer solution was removed and the wells were washed three times with 500 μL ice‐cold HEPES‐buffer, pH 7.4. The cells were detached using 200 μL of 0.1% Triton X‐100, and transferred to scintillation plastic vials and 2 mL of scintillation cocktail was added.
Series [5] has as its target T3, PAT1 (Rattus norvegicus, UniProt Q924A5).
T3 construct: tissue Charles River Deutschland; host or cells: intestine of living male Sprague-Dawley rats (oral dosing)
The series is described as follows: Oral taurine pharmacokinetics with co-administered BCH or Pro and Sar. The class given is in vivo, male Sprague-Dawley rats. The following applies: oral 30 mg/kg taurine, 200 mg/kg BCH. The method, then:
The pH was adjusted with NaOH or HCl to 7.40 ± 0.05.
The animals were acclimatized for a minimum of 5 days in groups of two and maintained on standard feed with free access to water. Prior to dosing, the animals were fasted for 16–20 h with free access to water.
Plasma was harvested immediately by 10 min of centrifugation at 4°C, 3600g (Multifuge 1 S‐R, Heraeus, Hanau, Germany) and stored in polypropylene tubes (Pony Vial, PerkinElmer, Waltham, MA, USA) at −20°C until analysed. At the end of the experiment, animals were sacrificed by spinal dislocation using a guillotine. Plasma samples were left to defrost and mixed with 4 mL of liquid scintillation cocktail. The samples were counted for 3 min on a scintillation counter from Tri‐Carb 2900TR.
Based on this V d1, volume of distribution in the central compartment 1; V d2, volume of distribution in the peripheral compartment 2; AUC, area under the curve; and K10, the elimination rate from the central department, were calculated using Phoenix® 6.3 version (Pharsight Corporation, A Certara Company, USA). […] C max and t max were found as mean values of the plasma concentration profiles within each group. […] The total clearance was calculated as dose divided by AUC.

T1 sequence (Q7Z2H8 whole entry): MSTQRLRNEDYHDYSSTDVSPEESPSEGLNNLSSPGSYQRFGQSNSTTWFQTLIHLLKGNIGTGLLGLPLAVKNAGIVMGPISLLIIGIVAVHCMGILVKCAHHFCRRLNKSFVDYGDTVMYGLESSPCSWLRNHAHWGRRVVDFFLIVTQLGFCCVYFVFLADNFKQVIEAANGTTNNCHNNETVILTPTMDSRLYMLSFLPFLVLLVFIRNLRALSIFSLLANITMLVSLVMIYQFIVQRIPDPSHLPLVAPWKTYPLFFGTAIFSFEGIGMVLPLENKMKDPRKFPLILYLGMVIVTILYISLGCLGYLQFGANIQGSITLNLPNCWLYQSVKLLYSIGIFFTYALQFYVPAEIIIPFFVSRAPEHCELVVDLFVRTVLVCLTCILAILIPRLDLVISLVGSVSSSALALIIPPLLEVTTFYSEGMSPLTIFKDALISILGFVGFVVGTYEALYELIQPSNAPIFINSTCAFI
T3 sequence (Q924A5 whole entry): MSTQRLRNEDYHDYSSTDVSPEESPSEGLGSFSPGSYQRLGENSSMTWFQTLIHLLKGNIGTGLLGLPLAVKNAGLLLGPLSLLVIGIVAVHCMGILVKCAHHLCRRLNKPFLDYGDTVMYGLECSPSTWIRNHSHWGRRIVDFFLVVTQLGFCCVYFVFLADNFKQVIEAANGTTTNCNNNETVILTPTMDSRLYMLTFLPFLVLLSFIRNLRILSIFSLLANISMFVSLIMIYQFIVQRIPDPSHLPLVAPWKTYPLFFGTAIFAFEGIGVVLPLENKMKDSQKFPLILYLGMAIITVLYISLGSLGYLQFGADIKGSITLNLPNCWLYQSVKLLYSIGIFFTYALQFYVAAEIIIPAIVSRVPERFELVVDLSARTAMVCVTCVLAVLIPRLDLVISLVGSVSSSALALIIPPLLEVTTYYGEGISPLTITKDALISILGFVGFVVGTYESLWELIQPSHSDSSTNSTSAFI
Procedure for PAT1 and TauT: as §1

On to `NC1(C(=O)O)CC2CCC1C2` (centres unmarked) [BCH, 2‐Amino‐2‐norbornanecarboxylic acid], for which the “effect on absorptive (A-B) permeability of taurine” value (“effect on absorptive” below) on PAT1 [1] is listed as “did not alter”; at TauT [3] it was “did not significantly decrease”. Further, the “effect on taurine uptake” value at TauT [2] (10 mmol/L test substance) is “not affected”; in the series on PAT1 and TauT (10 mmol/L test substance), “not affected”; in the series on PAT1 and TauT (20 mg/mL test substance), “did not affect”; on PAT1 [4] (10 mmol/L test substance) it was “not affected significantly”; on PAT1 [4] (20 mg/mL test substance), “did not affect”. In addition, the “effect on taurine plasma concentration versus time profile (AUC0‐tlast, t max, C max)” value on PAT1 [5] is “similar; also recorded: did not have any significant effect”.

On to `O=C(O)Cc1c[nH]cn1` [IAA, imidazole‐4‐acetic acid], for which the “effect on taurine uptake” value is recorded as “significantly inhibited” at TauT [2] (10 mmol/L test substance); “significantly inhibited” in the series on PAT1 and TauT (10 mmol/L test substance); “not affected significantly” at PAT1 [4] (10 mmol/L test substance). Also, the taurine uptake result at TauT [2] (10 mmol/L test substance) was “approximately 10 % of the control uptake”.

For `O=C(O)[C@@H]1CCCN1` [Pro, L‐proline], the “effect on taurine uptake” value at TauT [2] (10 mmol/L test substance) is listed as “not affected”. Besides, the “effect on absorptive” value on TauT [3] is on record as “did not significantly decrease”.

As for `CNCC(=O)O` [Sar, sarcosine], the figures for the “effect on taurine uptake” value at TauT [2] (10 mmol/L test substance) and on TauT [2] (20 mg/mL test substance) were “not affected” and “decreased”, respectively. Besides, on TauT [3], the “effect on absorptive” value is given as “did not significantly decrease”.

These data come from paper PMC5641942 (Physiological Reports, 2017).
